Laboratory results from article PMC12519282, “Reduction of Negative Charge in Mercaptoacetyl-Based Chelators Influences the Biodistribution of Prostate-Specific Membrane Antigen-Targeting Pseudopeptides Labeled with Technetium-99m” (ACS Pharmacology & Translational Science, 2025).
Where two headings read alike, the source gives them in different places. Marks after values point to notes of the source that are not given here.

Legend:
[1] = biological target: T1, PSMA (Homo sapiens, UniProt Q04609); details: cited from earlier work
T1 construct: expressed in transfected cells; host or cells: PC3-pip (PSMA-transfected PC-3 prostate carcinoma cells), from Prof; Martin G. Pomper, Johns Hopkins University

[2] = physchem; assay type: physicochemical; details: pH 7.4
Method: To evaluate the label’s stability, 10 μL (0.25 μg) of radiolabeled conjugates was incubated with 300× molar excess of cysteine or with PBS for 1 h at room temperature. The test was run in triplicate. The release of free technetium-99m was controlled by using iTLC and radio-HPLC analysis. The stability in serum was analyzed by mixing the radioconjugates (0.25 μg in 10 μL) with murine serum or PBS (40 μL) as a control. The samples were incubated for 1 h at 37 °C and analyzed by iTLC. The experiment was performed in triplicate. The octanol–water distribution coefficient (Log D) was determined experimentally by the addition of 100 pmol of the radiolabeled tracer to an Eppendorf tube containing PBS (500 μL) and n-octanol (500 μL), pH ∼ 7.4. The solution was vortexed and centrifuged, and aliquots (50 μL) from each phase were collected and measured using a gamma counter. The experiment was performed in triplicate.

[3] = system: PC3-pip xenografts; details: in vivo; cited from earlier work
[4] = system: PC3-pip xenografts; experiment: biodistribution and tumor targeting in PC3-pip tumor-bearing mice; assay type: in vivo; details: PC3-pip tumor-bearing mice, 5 nmol/mouse iv
Description: The injected masses for the in vivo experiments were chosen based on the findings for [^99mTc]-Tc-BQ0413: to study the general biodistribution of radiolabeled tracers in normal mice (NMRI), 40 pmol of tracer was used to avoid blocking of PSMA-mediated uptake in kidneys and salivary glands, to study tumor targeting, 5 nmol of tracer was used to decrease uptake in PSMA-expressing organs.
PSMA-expressing PCa xenografts were implanted in BALB/c nu/nu mice by subcutaneous injection of the PC3-pip cell suspension in PBS (10^7 cells/animal in 100 μL). The average animal weight in the experiment was 18 ± 2 g. The average tumor weight was 0.4 ± 0.2 g. For in vivo specificity control, 10^7 cells/animal PSMA-negative PC-3 cells were implanted. The average animal weight was 18 ± 1 g. The average tumor weight was 0.1 ± 0.1 g. Four mice per data point were used in the in vivo experiments.
For tumor-bearing mice, each mouse was intravenously injected with 5 nmol of [^99mTc]-Tc-BQ0413, [^99mTc]-Tc-BQ0500, and [^99mTc]-Tc-BQ0501 (60 kBq; the mass of the injected compound was adjusted with an unlabeled tracer). The mice were euthanized after lethal intraperitoneal injection of ketamine/xylazine, followed by exsanguination 1 and 3 h pi, similarly to the procedure described above.

[5] = biological target: T1, PSMA; experiment: binding kinetics in real time on living PC3-pip cells (LigandTracer Yellow); details: 5 nM tracer, 1:2 model (1:1 for BQ0413)
Method: The binding kinetics of technetium-99m-labeled BQ0413, BQ0500, and BQ0501 were determined in PC3-pip cells in real-time using LigandTracer Yellow (Ridgeview Instruments AB, Uppsala, Sweden). The activity binding was recorded with 5 nM radiolabeled tracers for 150 min. After the binding kinetics were measured, the medium containing the labeled tracer was replaced with fresh medium, and the dissociation was monitored over 7 h. The association rate (k a) and the dissociation rate (k d) were computed using a 1:2 kinetic binding model in TraceDrawer software (Ridgeview Instruments AB, Uppsala, Sweden), and the equilibrium dissociation constant K D was calculated.

T1 sequence (Q04609 whole entry): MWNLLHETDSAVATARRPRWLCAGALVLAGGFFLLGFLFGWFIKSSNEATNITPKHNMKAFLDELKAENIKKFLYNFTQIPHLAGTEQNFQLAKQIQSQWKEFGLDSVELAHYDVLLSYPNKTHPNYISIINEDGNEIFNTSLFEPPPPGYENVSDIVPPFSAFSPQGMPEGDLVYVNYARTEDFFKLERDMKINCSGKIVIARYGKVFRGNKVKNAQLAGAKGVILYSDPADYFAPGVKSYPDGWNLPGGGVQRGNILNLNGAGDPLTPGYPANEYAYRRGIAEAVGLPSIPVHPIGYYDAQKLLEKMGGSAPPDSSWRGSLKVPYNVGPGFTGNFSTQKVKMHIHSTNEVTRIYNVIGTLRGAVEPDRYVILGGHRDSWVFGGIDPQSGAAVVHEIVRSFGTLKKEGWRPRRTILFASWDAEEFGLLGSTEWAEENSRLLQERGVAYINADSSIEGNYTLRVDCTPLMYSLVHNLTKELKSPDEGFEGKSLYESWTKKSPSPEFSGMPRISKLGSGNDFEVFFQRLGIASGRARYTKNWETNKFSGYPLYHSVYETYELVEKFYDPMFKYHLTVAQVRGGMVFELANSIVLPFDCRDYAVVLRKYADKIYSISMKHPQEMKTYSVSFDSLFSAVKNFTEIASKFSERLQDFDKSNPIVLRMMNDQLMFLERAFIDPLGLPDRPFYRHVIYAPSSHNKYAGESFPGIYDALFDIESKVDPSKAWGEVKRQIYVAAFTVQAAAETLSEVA

For `O=C(O)CCc1ccc(O)c(CN(CCN(CC(=O)O)Cc2cc(CCC(=O)NCCCCCC(=O)NCCCC[C@H](NC(=O)N[C@@H](CCC(=O)O)C(=O)O)C(=O)O)ccc2O)CC(=O)O)c1` [PSMA-11], the Kd ([1]; nonlabeled PSMA-11, ref 29 (inferred, citation mark not shown)) is given as 0.5 ± 0.2 nM.

In the case of `CC(=O)NC(CCCCNC(=O)CNC(=O)C(CCC(=O)O)NC(=O)C(CCC(=O)O)NC(=O)C(CCC(=O)O)NC(=O)CS)C(=O)NCCCCCCCC(=O)NC(Cc1ccc(O)cc1)C(=O)NC(Cc1ccc2ccccc2c1)C(=O)NCCCCC(NC(=O)NC(CCC(=O)O)C(=O)O)C(=O)O` (stereo not shown) [[^99mTc]Tc-BQ0413, metal not drawn, reference compound], the “Log D (octanol–water distribution coefficient)” value [2] is given as −2.5 ± 0.1, the excretion pathway [3] is given as “renal” and the tumor uptake [3] is given as 33 ± 3%IA/g (3 h). For the same compound, the tumor-to-blood ratio [3] was 314 ± 73 (3 h), the Kd ([1]; PC3-pip, ref 15 (inferred, reference cell empty)) was 0.033 nM and the activity in carcass ([4]; 1 h pi) was 8 ± 2 ^b %IA/sample. For the same compound, the “activity in intestines with content” value ([4]; 1 h pi) was 1.7 ± 0.4 %IA/sample, the “activity uptake in blood” value ([4]; 1 h pi) was 1.0 ± 0.3 ^b %IA/g and the “activity uptake in bone” value ([4]; 1 h pi) was 0.9 ± 0.3 ^b %IA/g. For the same compound, the “activity uptake in kidney” value ([4]; 1 h pi) was 23 ± 3 ^b %IA/g, the “activity uptake in liver” value ([4]; 1 h pi) was 1.3 ± 0.4 ^b %IA/g and the “activity uptake in lung” value ([4]; 1 h pi) was 1.2 ± 0.2 ^b %IA/g. For the same compound, the “activity uptake in muscle” value ([4]; 1 h pi) was 0.3 ± 0.1 ^b %IA/g, the “activity uptake in pancreas” value ([4]; 1 h pi) was 0.6 ± 0.1 ^b %IA/g and the “activity uptake in salivary gland” value ([4]; 1 h pi) was 1.4 ± 0.2 ^b %IA/g. The “activity uptake in small intestines” value ([4]; 1 h pi) was 0.5 ± 0.1^b %IA/g, the “activity uptake in spleen” value ([4]; 1 h pi) was 1.9 ± 0.8 %IA/g and the “activity uptake in stomach” value ([4]; 1 h pi) was 1.5 ± 0.4 %IA/g. The “activity uptake in tumor” value ([4]; 1 h pi) was 19 ± 4 %IA/g, the tumor-to-blood ratio ([4]; 1 h pi) was 22 ± 12 ^b and the tumor-to-bone ratio ([4]; 1 h pi) was 27 ± 17 ^b. For the same compound, the tumor-to-kidney ratio ([4]; 1 h pi) was 0.9 ± 0.3 ^b, the tumor-to-liver ratio ([4]; 1 h pi) was 17 ± 9 ^b and the tumor-to-lung ratio ([4]; 1 h pi) was 16 ± 5 ^b. The tumor-to-muscle ratio ([4]; 1 h pi) was 62 ± 25 ^b, the tumor-to-pancreas ratio ([4]; 1 h pi) was 38 ± 5 ^b and the tumor-to-salivary gland ratio ([4]; 1 h pi) was 14 ± 3 ^b. For the same compound, the tumor-to-small intestines ratio ([4]; 1 h pi) was 41 ± 17 ^b, the tumor-to-spleen ratio ([4]; 1 h pi) was 9 ± 3 ^b and the tumor-to-stomach ratio ([4]; 1 h pi) was 13 ± 2 ^b. The activity in carcass ([4]; 3 h pi) was 1.7 ± 0.3 %IA/sample, the “activity in intestines with content” value ([4]; 3 h pi) was 1.7 ± 0.2 %IA/sample and the “activity uptake in blood” value ([4]; 3 h pi) was 0.17 ± 0.04 %IA/g. For the same compound, the “activity uptake in bone” value ([4]; 3 h pi) was 0.2 ± 0.1 %IA/g, the “activity uptake in kidney” value ([4]; 3 h pi) was 9 ± 2 %IA/g and the “activity uptake in liver” value ([4]; 3 h pi) was 0.3 ± 0.1 %IA/g. The “activity uptake in lung” value ([4]; 3 h pi) was 0.3 ± 0.1 %IA/g, the “activity uptake in muscle” value ([4]; 3 h pi) was 0.06 ± 0.02 %IA/g and the “activity uptake in pancreas” value ([4]; 3 h pi) was 0.13 ± 0.02 %IA/g. The “activity uptake in salivary gland” value ([4]; 3 h pi) was 0.5 ± 0.1 %IA/g, the “activity uptake in small intestines” value ([4]; 3 h pi) was 0.2 ± 0.1 %IA/g and the “activity uptake in spleen” value ([4]; 3 h pi) was 0.9 ± 0.5 %IA/g. The “activity uptake in stomach” value ([4]; 3 h pi) was 0.6 ± 0.2 %IA/g, the “activity uptake in tumor” value ([4]; 3 h pi) was 17 ± 3 %IA/g and the tumor-to-blood ratio ([4]; 3 h pi) was 94 ± 3. It also gave a tumor-to-bone ratio ([4]; 3 h pi) of 114 ± 29, a tumor-to-kidney ratio ([4]; 3 h pi) of 1.9 ± 0.3 and a tumor-to-liver ratio ([4]; 3 h pi) of 48 ± 5. The tumor-to-lung ratio ([4]; 3 h pi) was 52 ± 8, the tumor-to-muscle ratio ([4]; 3 h pi) was 284 ± 19 and the tumor-to-pancreas ratio ([4]; 3 h pi) was 135 ± 11. It also gave a tumor-to-salivary gland ratio ([4]; 3 h pi) of 31 ± 3, a tumor-to-small intestines ratio ([4]; 3 h pi) of 126 ± 57 and a tumor-to-spleen ratio ([4]; 3 h pi) of 16 ± 4. For the same compound, the tumor-to-stomach ratio ([4]; 3 h pi) was 24 ± 2, the “B max1 (binding maximum)” value [5] was 947 CPS and the Kd ([5]; read-out: K D1) was 0.089 nM.
